Measurements reported in patent US20230265151A1, “GIP/GLP1 CO-AGONIST COMPOUNDS” (priority 2020, published 2023).
Read-outs that look alike come from different tables or passages of the source. *1 amine or outer side, *2 acyl side, *3 side chain or, on linkers, in order; H or OH if unused. Where a SMILES comes first, the peptide text is derived from it. Side-chain parts run from the residue outwards. [ ]: non-standard residue; d: D form. The star is where a group is joined. αMePhe(2-F) = C[C@](N)(Cc1ccccc1F)C(=O)O; γGlu = O=C(O)[C@H](CCC(=O)[*:2])N[*:1]; C14 diacid = O=C(O)CCCCCCCCCCCCC(=O)*; αMeY = C[C@](N)(Cc1ccc(O)cc1)C(=O)O; 4Pal = N[C@@H](Cc1ccncc1)C(=O)O; αMeL = CC(C)C[C@](C)(N)C(=O)O; αMeS = C[C@](N)(CO)C(=O)O; Orn = NCCC[C@H](N)C(=O)O; AEEA = NCCOCCOCC(=O)O; Aib = CC(C)(N)C(=O)O

Columns and labels:
Assay type in all cases: cell-based
hGIPR = target: T1, hGIPR (Homo sapiens, UniProt P48546); assay: Functional cAMP formation (HTRF) in HEK-293 clonal cells expressing hGIPR, 0.1% bovine casein, without or with 1.0% human serum albumin; conditions: for EC50: cAMP, 0.1% bovine casein (no human serum albumin), geometric mean
T1 construct: expressed in transfected cells
T1 sequence (P48546 22-466): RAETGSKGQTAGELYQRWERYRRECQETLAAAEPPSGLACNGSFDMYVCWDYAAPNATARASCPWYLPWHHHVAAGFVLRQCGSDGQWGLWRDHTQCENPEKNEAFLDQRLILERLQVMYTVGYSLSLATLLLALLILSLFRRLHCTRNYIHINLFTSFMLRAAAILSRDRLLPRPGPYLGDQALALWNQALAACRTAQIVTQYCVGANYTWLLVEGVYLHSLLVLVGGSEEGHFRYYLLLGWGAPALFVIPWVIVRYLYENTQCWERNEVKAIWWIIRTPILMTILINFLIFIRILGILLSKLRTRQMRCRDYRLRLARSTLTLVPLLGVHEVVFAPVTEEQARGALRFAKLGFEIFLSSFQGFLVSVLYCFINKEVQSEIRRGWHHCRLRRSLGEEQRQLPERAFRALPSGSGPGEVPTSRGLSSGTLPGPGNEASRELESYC
In short: (§1)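 Cells were stimulated with peptide for 30 min at 37° C, then intracellular cAMP was measured by competitive HTRF (665/620 nm ratio) and converted to nM using a cAMP standard curve. Relative EC50 and Emax came from four-parameter logistic fits of percent maximal response against peptide concentration.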

hGCGR = target: T2, hGCGR (Homo sapiens, UniProt P47871); assay: Functional cAMP formation (HTRF) in HEK-293 clonal cells expressing hGCGR, 0.1% bovine casein, without or with 1.0% human serum albumin
T2 construct: expressed in transfected cells
In short: as §1

hGLP-1R = hGLP-1R (Homo sapiens, UniProt P43220); assay: Functional cAMP formation (HTRF) in HEK-293 clonal cells expressing hGLP-1R, 0.1% bovine casein, without or with 1.0% human serum albumin; parameters: expressed in transfected cells; conditions: for Emax: arithmetic mean; for EC50: cAMP, 0.1% bovine casein (no human serum albumin), geometric mean
In short: as §1

[1] = HEK293, 0.1% bovine casein and 1.0% human serum albumin, 37° C., percent of maximal response to GIP(1-42)NH2, read-out: hGIPR Emax, % ± SEM
[2] = 0.1% bovine casein and 1.0% human serum albumin, 37° C., geometric mean, read-out: hGCGR EC50, nM (SEM, n)

T2 sequence (P47871 26-477): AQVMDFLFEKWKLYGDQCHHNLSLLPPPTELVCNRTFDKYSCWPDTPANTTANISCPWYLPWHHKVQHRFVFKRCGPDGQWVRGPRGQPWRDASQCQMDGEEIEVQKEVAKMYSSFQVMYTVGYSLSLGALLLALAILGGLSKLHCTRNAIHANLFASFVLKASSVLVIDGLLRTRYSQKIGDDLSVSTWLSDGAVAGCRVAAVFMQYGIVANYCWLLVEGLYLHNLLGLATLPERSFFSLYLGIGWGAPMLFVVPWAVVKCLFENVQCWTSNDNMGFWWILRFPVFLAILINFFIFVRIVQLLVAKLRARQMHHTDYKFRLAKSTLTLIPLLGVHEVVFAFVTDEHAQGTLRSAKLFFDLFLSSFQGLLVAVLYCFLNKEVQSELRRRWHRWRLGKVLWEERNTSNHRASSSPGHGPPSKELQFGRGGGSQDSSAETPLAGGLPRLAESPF
Sequence of hGLP-1R (P43220 24-463): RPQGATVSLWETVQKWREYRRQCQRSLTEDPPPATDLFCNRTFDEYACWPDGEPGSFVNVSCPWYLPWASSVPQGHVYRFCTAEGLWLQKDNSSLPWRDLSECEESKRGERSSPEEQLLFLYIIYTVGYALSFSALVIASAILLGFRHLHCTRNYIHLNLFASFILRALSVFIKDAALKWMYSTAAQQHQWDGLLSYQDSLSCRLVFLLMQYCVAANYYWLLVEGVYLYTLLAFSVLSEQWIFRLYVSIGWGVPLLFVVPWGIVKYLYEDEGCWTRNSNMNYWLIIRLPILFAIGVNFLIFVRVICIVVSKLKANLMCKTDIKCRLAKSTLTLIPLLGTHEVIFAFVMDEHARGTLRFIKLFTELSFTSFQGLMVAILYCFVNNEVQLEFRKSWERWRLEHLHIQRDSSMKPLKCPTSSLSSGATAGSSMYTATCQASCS

CC[C@H](C)[C@H](NC(=O)[C@H](CCCN)NC(=O)[C@H](CC(=O)O)NC(=O)[C@H](CC(C)C)NC(=O)[C@](C)(CC(C)C)NC(=O)[C@@H](NC(=O)[C@](C)(CO)NC(=O)[C@H](Cc1ccncc1)NC(=O)[C@H](CC(=O)O)NC(=O)[C@H](CO)NC(=O)[C@@H](NC(=O)[C@](C)(Cc1ccccc1F)NC(=O)[C@@H](NC(=O)CNC(=O)[C@H](CCC(=O)O)NC(=O)C(C)(C)NC(=O)[C@@H](N)Cc1ccc(O)cc1)[C@@H](C)O)[C@@H](C)O)[C@@H](C)CC)C(=O)N[C@@H](C)C(=O)N[C@@H](CCC(N)=O)C(=O)NC(C)(C)C(=O)N[C@@H](CCCCNC(=O)COCCOCCNC(=O)COCCOCCNC(=O)CC[C@H](NC(=O)CCCCCCCCCCCCC(=O)O)C(=O)O)C(=O)N[C@@H](Cc1ccccc1)C(=O)N[C@H](C(=O)N[C@@H](CCCCNC(=O)COCCOCCNC(=O)COCCOCCNC(=O)CC[C@H](NC(=O)CCCCCCCCCCCCC(=O)O)C(=O)O)C(=O)N[C@@](C)(Cc1ccc(O)cc1)C(=O)N[C@@H](CC(C)C)C(=O)N[C@H](C(=O)N[C@@H](CCC(=O)O)C(=O)NCC(=O)NCC(=O)N1CCC[C@H]1C(=O)N[C@@H](CO)C(=O)N[C@@H](CO)C(=O)NCC(=O)N[C@@H](C)C(=O)N1CCC[C@H]1C(=O)N1CCC[C@H]1C(=O)N1CCC[C@H]1C(=O)N[C@@H](CO)C(N)=O)[C@@H](C)CC)[C@@H](C)CC [Example 215] (H-Y[Aib]EGT[αMePhe(2-F)]TSD[4Pal][αMeS]I[αMeL]LD[Orn]IAQ[Aib]K([AEEA-AEEA-γGlu-C14 diacid])FIK([AEEA-AEEA-γGlu-C14 diacid])[αMeY]LIEGGPSSGAPPPS-NH2)
Emax (hGIPR; HEK293, read-out: hGIPR Emax, % ± SEM, 0.1% bovine casein and 1.0% human serum albumin, 37° C., percent of maximal response to GIP(1-42)NH2): 91.3%
Emax (hGIPR; HEK293, read-out: hGIPR Emax, % ± SEM, percent of maximal response to GIP(1-42)NH2, 37° C., 0.1% bovine casein, arithmetic mean): 85%
EC50 (hGIPR; hGIPR EC50, nM (SEM, n), incubated at 37° C.): 0.0437 nM
EC50 (hGCGR; hGCGR EC50, nM (SEM, n), 0.1% bovine casein and 1.0% human serum albumin, 37° C., geometric mean): > 9950 nM
EC50 (hGCGR; hGCGR EC50, nM (SEM, n), cAMP, incubated at 37° C., 0.1% bovine casein (no human serum albumin), geometric mean): > 9950 nM
Emax (hGLP-1R; HEK293, read-out: hGLP-1R Emax, % ± SEM, percent of maximal response to GLP-1(7-36)NH2, 37° C., 0.1% bovine casein): 89.8%
EC50 (hGLP-1R; hGLP-1R EC50, nM (SEM, n), incubated at 37° C.): 0.44 nM

CCCCCCCCCCCC(=O)N[C@@H](CCC(=O)NCCOCCOCC(=O)NCCOCCOCC(=O)NCCCC[C@H](NC(=O)[C@H](CCCN)NC(=O)[C@H](CC(=O)O)NC(=O)[C@H](CC(C)C)NC(=O)[C@](C)(CC(C)C)NC(=O)[C@@H](NC(=O)C(C)(C)NC(=O)[C@H](Cc1ccc(O)cc1)NC(=O)[C@H](CC(=O)O)NC(=O)[C@H](CO)NC(=O)[C@@H](NC(=O)[C@](C)(Cc1ccccc1F)NC(=O)[C@@H](NC(=O)CNC(=O)[C@H](CCC(=O)O)NC(=O)C(C)(C)NC(=O)[C@@H](N)Cc1ccc(O)cc1)[C@@H](C)O)[C@@H](C)O)[C@@H](C)CC)C(=O)N[C@@H](C)C(=O)N[C@@H](CCC(N)=O)C(=O)NC(C)(C)C(=O)N[C@@H](CCC(=O)O)C(=O)N[C@@H](Cc1ccccc1)C(=O)N[C@H](C(=O)N[C@H](CCC(=O)O)C(=O)N[C@@](C)(Cc1ccc(O)cc1)C(=O)N[C@@H](CC(C)C)C(=O)N[C@H](C(=O)N[C@@H](CCCCNC(=O)COCCOCCNC(=O)COCCOCCNC(=O)CC[C@H](NC(=O)CCCCCCCCCCC)C(=O)O)C(=O)NCC(=O)NCC(=O)N1CCC[C@H]1C(=O)N[C@@H](CO)C(=O)N[C@@H](CO)C(=O)NCC(=O)N[C@@H](C)C(=O)N1CCC[C@H]1C(=O)N1CCC[C@H]1C(=O)N1CCC[C@H]1C(=O)N[C@@H](CO)C(N)=O)[C@@H](C)CC)[C@@H](C)CC)C(=O)O [Example 301]
Emax (hGIPR; [1]): 85.5%
Emax (hGIPR; HEK293, cAMP, 37° C., 0.1% bovine casein, percent of maximal response to GIP(1-42)NH2, arithmetic mean, read-out: hGIPR Emax, % ± SEM): 97.4%
EC50 (hGIPR; 37° C., read-out: hGIPR EC50, nM (SEM, n)): 0.0128 nM
EC50 (hGCGR; [2]): > 9950 nM
EC50 (hGCGR; cAMP, 37° C., 0.1% bovine casein (no human serum albumin), geometric mean, read-out: hGCGR EC50, nM (SEM, n)): > 9950 nM
EC50 (hGLP-1R; 37° C., read-out: hGLP-1R EC50, nM (SEM, n)): 0.175 nM

CC[C@H](C)[C@H](NC(=O)[C@H](CC(C)C)NC(=O)[C@](C)(Cc1ccc(O)cc1)NC(=O)[C@@H](CCC(=O)O)NC(=O)[C@@H](NC(=O)[C@H](Cc1ccccc1)NC(=O)[C@H](CCC(=O)O)NC(=O)C(C)(C)NC(=O)[C@H](CCC(N)=O)NC(=O)[C@H](C)NC(=O)[C@H](CCCCNC(=O)COCCOCCNC(=O)CC[C@H](NC(=O)CCCCCCCCCOc1ccc(C(=O)O)cc1)C(=O)O)NC(=O)[C@H](CCCN)NC(=O)[C@H](CC(=O)O)NC(=O)[C@H](CC(C)C)NC(=O)[C@](C)(CC(C)C)NC(=O)[C@@H](NC(=O)C(C)(C)NC(=O)[C@H](Cc1ccncc1)NC(=O)[C@H](CC(=O)O)NC(=O)[C@H](CO)NC(=O)[C@@H](NC(=O)[C@](C)(Cc1ccccc1F)NC(=O)[C@@H](NC(=O)CNC(=O)[C@H](CCC(=O)O)NC(=O)C(C)(C)NC(=O)[C@@H](N)Cc1ccc(O)cc1)[C@@H](C)O)[C@@H](C)O)[C@@H](C)CC)[C@@H](C)CC)C(=O)N[C@@H](CCC(=O)O)C(=O)NCC(=O)NCC(=O)N1CCC[C@H]1C(=O)N[C@@H](CO)C(=O)N[C@@H](CO)C(=O)NCC(=O)N[C@@H](C)C(=O)N1CCC[C@H]1C(=O)N1CCC[C@H]1C(=O)N1CCC[C@H]1C(=O)N[C@@H](CO)C(=O)N[C@@H](CCCCNC(=O)COCCOCCNC(=O)CC[C@H](NC(=O)CCCCCCCCCOc1ccc(C(=O)O)cc1)C(=O)O)C(N)=O [Example 362]
Emax (hGIPR; HEK293, read-out: hGIPR Emax, % ± SEM, cAMP, 37° C., 0.1% bovine casein and 1.0% human serum albumin, percent of maximal response to GIP(1-42)NH2): 86.7%
EC50 (hGIPR; hGIPR EC50, nM (SEM, n), 37° C.): 0.0131 nM
EC50 (hGCGR; hGCGR EC50, nM (SEM, n), cAMP, 37° C., 0.1% bovine casein (no human serum albumin), geometric mean): > 10100 nM
EC50 (hGCGR; hGCGR EC50, nM (SEM, n), cAMP, 37° C., 0.1% bovine casein and 1.0% human serum albumin, geometric mean (SEM, n)): > 9950 nM
Emax (hGLP-1R; HEK293, read-out: hGLP-1R Emax, % ± SEM, cAMP, 37° C., 0.1% bovine casein, percent of maximal response to GLP-1(7-36)NH2): 109%
EC50 (hGLP-1R; hGLP-1R EC50, nM (SEM, n), 37° C.): 0.34 nM

CC[C@H](C)[C@H](NC(=O)[C@H](CC(C)C)NC(=O)[C@](C)(Cc1ccc(O)cc1)NC(=O)[C@@H](CCC(=O)O)NC(=O)[C@@H](NC(=O)[C@H](Cc1ccccc1)NC(=O)[C@H](CCCCNC(=O)COCCOCCNC(=O)COCCOCCNC(=O)CC[C@H](NC(=O)CCCCCCCCCCCCC(=O)O)C(=O)O)NC(=O)C(C)(C)NC(=O)[C@H](CCC(N)=O)NC(=O)[C@H](C)NC(=O)[C@H](CCCCNC(=O)COCCOCCNC(=O)COCCOCCNC(=O)CC[C@H](NC(=O)CCCCCCCCCCCCC(=O)O)C(=O)O)NC(=O)[C@H](CCCN)NC(=O)[C@H](CC(=O)O)NC(=O)[C@H](CC(C)C)NC(=O)[C@](C)(CC(C)C)NC(=O)[C@@H](NC(=O)C(C)(C)NC(=O)[C@H](Cc1ccc(O)cc1)NC(=O)[C@H](CC(=O)O)NC(=O)[C@H](CO)NC(=O)[C@@H](NC(=O)[C@](C)(Cc1ccccc1F)NC(=O)[C@@H](NC(=O)CNC(=O)[C@H](CCC(=O)O)NC(=O)C(C)(C)NC(=O)[C@@H](N)Cc1ccc(O)cc1)[C@@H](C)O)[C@@H](C)O)[C@@H](C)CC)[C@@H](C)CC)C(=O)N[C@@H](CCC(=O)O)C(=O)NCC(=O)NCC(=O)N1CCC[C@H]1C(=O)N[C@@H](CO)C(=O)N[C@@H](CO)C(=O)NCC(=O)N[C@@H](C)C(=O)N1CCC[C@H]1C(=O)N1CCC[C@H]1C(=O)N1CCC[C@H]1C(=O)N[C@@H](CO)C(N)=O [Example 230]
Emax (hGIPR; [1]): 85.8%
Emax (hGIPR; HEK293, percent of maximal response to GIP(1-42)NH2, 37° C., 0.1% bovine casein, arithmetic mean, read-out: hGIPR Emax, % ± SEM): 105%
EC50 (hGIPR; incubated at 37° C., read-out: hGIPR EC50, nM (SEM, n)): 0.0199 nM
EC50 (hGCGR; [2]): > 9950 nM
EC50 (hGCGR; cAMP, incubated at 37° C., 0.1% bovine casein (no human serum albumin), geometric mean, read-out: hGCGR EC50, nM (SEM, n)): > 9950 nM
Emax (hGLP-1R; HEK293, percent of maximal response to GLP-1(7-36)NH2, 37° C., 0.1% bovine casein, read-out: hGLP-1R Emax, % ± SEM): 90.3%
EC50 (hGLP-1R; incubated at 37° C., read-out: hGLP-1R EC50, nM (SEM, n)): 0.726 nM
